Data set [1] concerns female subjects diagnosed with severe postpartum depression. The experiment in a line: Placebo-controlled study of Compound 1 in postpartum depression (HAM-D, MADRS, HAM-A, CGI-I). The class given is in vivo, human. To be noted: 30 mg once a day for 15 days. The method, then:
Compound 1 was investigated for use in subjects with depression. Female subjects (18-65 years old) diagnosed with severe postpartum depression (PDD) with a HAM-D total score of greater than or equal to 26 at screening and Day 1 were used in the investigation. The subjects were dosed once per day with capsules containing 30 mg of Compound 1. The dose could be adjusted to capsules containing 20 mg of Compound 1 if the 30 mg dose was not tolerated. Subjects not dosed with Compound 1 were dosed with a placebo. In total, 78 subjects were treated with Compound 1 at 30 mg and 73 subjects were treated with placebo.
Assuming a 2-sided test at an alpha level of 0.05, a sample size of approximately 65 evaluable subjects per treatment group provided 90% power to detect a placebo-adjusted treatment difference of approximately 4 points in the primary endpoint, change from baseline in HAM-D total score at Day 15 assuming standard deviation (SD) of 7 points. The change from baseline in the HAM-D total score was analyzed using a mixed effects model for repeated measures (MMRM). The model included the change from baseline at each visit as the dependent variable. The main comparison was (difference in least mean square [LSMEAN]) between Compound 1 Capsules and placebo at the 15-day timepoint. […]

Data set [2] deals with synaptic and extrasynaptic GABAA receptors. The following applies: cited from earlier work.
Data set [3] relates to subjects with MDD. Put plainly: Earlier clinical studies of Compound 1 in subjects with MDD (Phase 2 study, previous clinical trials).

As to `C[C@@]1(O)CC[C@H]2[C@H](CC[C@@H]3[C@@H]2CC[C@]2(C)[C@@H](C(=O)Cn4cc(C#N)cn4)CC[C@@H]32)C1` [Compound 1], the “overall efficacy in postpartum depression compared to placebo” value in data set [1] is given as “effective at treating postpartum depression”. Also, the “mode of action at GABAA receptors” value in data set [2] is “positive allosteric modulator of GABAA receptors”. Besides, in data set [3] (30 mg per day, Phase 2 study in subjects with MDD), the “efficacy and tolerability of the dose level” value is “efficacious and well-tolerated”. Further, in data set [3] (Day 42), the “subjects with HAM-D score of 16 to 21 among those achieving remission or response at Day 15” value turned out to be 18.2% and the “subjects with HAM-D≥22 among those achieving remission or response at Day 15” value worked out at 6.1%. In data set [3] (previous clinical trials, administered in the morning), the “adverse effect when administered in the morning” value is “sedation/somnolence observed”. For the same compound, the “tolerability when given in the evening” value in data set [3] (previous clinical trials, given in the evening) is recorded as “improved tolerability”.

The values are drawn from patent US20210338692A1, “A 19-NOR C3,3-DISUBSTITUTED C21-N-PYRAZOLYL STEROID AND METHODS OF USE THEREOF” (SAGE THERAPEUTICS, INC., priority 2018, published 2021).
